Source: ChEMBL document CHEMBL4411285, “Design, synthesis, in silico pharmacokinetics prediction and biological evaluation of 1,4-dihydroindeno[1,2-c]pyrazole chalcone as EGFR /Akt pathway inhibitors” (Eur J Med Chem, 2019)
pIC50: −log10 of the molar value. Activity calls are given as the source filed them. No cut-off for these calls is given here.

Legend:
A549 [1] = assay: Induction of apoptosis in human A549 cells assessed as decrease in Bcl-2 expression at 10 uM after 24 hrs by Western blot analysis; format: functional, cell-based
SK-BR-3 = assay: Cytotoxicity against human SKBR3 cells after 24 hrs by MTT assay; format: functional, cell-based; details: SK-BR-3, 24 h
Tubulin (Homo sapiens) = Tubulin (Homo sapiens) (UniProt P68371+Q9H4B7+P0DPH7+P68366+Q13509+Q71U36+P04350+Q3ZCM7+P07437+P68363+Q9BQE3+Q6PEY2+Q13885+Q9BVA1+Q9BUF5); assay: Inhibition of tubulin network in human A549 cells at 10 uM after 24 hrs by Hoechst 33342 staining-based confocal microscopic analysis; format: cell-based
A549 [2] = assay: Cell cycle arrest in human A549 cells assessed as accumulation of cells at S phase at 10 uM after 24 hrs by propidium iodide staining-based flow cytometric analysis (reference value: 6.22%); format: functional
HCT-116 = assay: Cytotoxicity against human HCT116 cells after 24 hrs by MTT assay; format: functional, cell-based; details: HCT-116, 24 h
MDA-MB-231 = assay: Cytotoxicity against human MDA-MB-231 cells after 24 hrs by MTT assay; format: functional, cell-based; details: MDA-MB-231, 24 h
A549 [3] = assay: Downregulation of EGFR expression in human A549 cells at 10 uM after 24 hrs by Hoechst staining-based fluorescence assay; format: functional, cell-based
A549 [4] = assay: Cell cycle arrest in human A549 cells assessed as accumulation of cells at G2/M phase at 10 uM after 24 hrs by propidium iodide staining-based flow cytometric analysis (reference value: 21.7%); format: functional
HEK-293T = assay: Cytotoxicity against human HEK293T cells after 24 hrs by MTT assay; format: cell-based
A549 [5] = assay: Induction of apoptosis in human A549 cells assessed as increase in TP53 expression at 10 uM after 24 hrs by Western blot analysis; format: functional, cell-based
A549 [6] = assay: Inhibition of 3-D spheroids cell growth in human A549 cells at 10 uM after 25 days by crystal violet staining-based immunocytochemistry; format: functional
A549 [7] = assay: Cell cycle arrest in human A549 cells assessed as accumulation of cells at sub G1 phase at 10 uM after 24 hrs by propidium iodide staining-based flow cytometric analysis (reference value: 0.52%); format: functional
A549 [8] = assay: Cell cycle arrest in human A549 cells assessed as accumulation of cells at G0/G1 phase at 10 uM after 24 hrs by propidium iodide staining-based flow cytometric analysis (reference value: 71.1%); format: functional
MCF7 = assay: Cytotoxicity against human MCF7 cells after 24 hrs by MTT assay; format: functional, cell-based; details: MCF7, 24 h
A549 [9] = assay: Cytotoxicity against human A549 cells after 24 hrs by MTT assay; format: functional, cell-based; details: A549, 24 h
A549 [10] = assay: Induction of apoptosis in human A549 cells assessed as increase in BAX expression at 10 uM after 24 hrs by Western blot analysis; format: functional, cell-based
A549 [11] = assay: Downregulation of AKT expression in human A549 cells at 10 uM after 24 hrs by Hoechst staining-based immunocytochemistry; format: functional, cell-based

Row | inhibition (Tubulin (Homo sapiens)) | Compound | Activity (A549 [1]) | pIC50 (SK-BR-3) | Activity (A549 [2]) | pIC50 (HCT-116) | pIC50 (MDA-MB-231) | Activity (A549 [3]) | Activity (A549 [4]) | pIC50 (HEK-293T) | Activity (A549 [5]) | growth inhibition (GI) (A549 [6]) | Activity (A549 [7]) | Activity (A549 [8]) | pIC50 (MCF7) | pIC50 (A549 [9]) | Activity (A549 [10]) | Activity (A549 [11])
1 | Active | COc1ccc(C(=O)/C=C/c2[nH]nc3c2Cc2cc(OC)c(OC)cc2-3)cc1OC | Active | 5.29 | 7.62% | 5.18 | 5.42 | Active | 40.6% | 4.34 | Active | Active | 5.27% | 45.9% | 5.16 | 5.28 | Active | Active
2 | – | COc1ccc2c(c1)-c1n[nH]c(/C=C/C(=O)c3ccc(OC)c(OC)c3)c1C2 | – | 5.04 | – | 4.91 | 5.35 | – | – | 4.48 | – | – | – | – | 5.10 | 4.98 | – | –
3 | Active | COc1ccc2c(c1)-c1n[nH]c(/C=C/C(=O)c3cc(OC)c(OC)c(OC)c3)c1C2 | Active | 5.32 | 7.99% | 5.16 | 5.23 | Active | 29.6% | 4.49 | Active | Active | 2.36% | 59.5% | 5.18 | 5.42 | Active | Active
4 | – | COc1cc2c(cc1OC)-c1n[nH]c(/C=C/C(=O)c3ccc4c(c3)OCO4)c1C2 | – | 5.09 | – | 4.93 | 5.28 | – | – | 4.74 | – | – | – | – | 5.16 | 4.92 | – | –
5 | – | COc1cc2c(cc1OC)-c1n[nH]c(/C=C/C(=O)c3ccc(N)cc3)c1C2 | – | 5.03 | – | 5.08 | 5.19 | – | – | 4.70 | – | – | – | – | 5.12 | 5.01 | – | –
6 | – | COc1ccc(C(=O)/C=C/c2[nH]nc3c2Cc2cc(OC)c(OC)cc2-3)cc1 | – | 5.07 | – | 4.94 | 5.18 | – | – | 4.64 | – | – | – | – | 5.16 | 5.01 | – | –
7 | – | COc1ccc(C(=O)/C=C/c2[nH]nc3c2Cc2ccc(OC)cc2-3)cc1 | – | 4.99 | – | 4.88 | 5.21 | – | – | 4.35 | – | – | – | – | 5.04 | 4.88 | – | –
8 | – | COc1cc(C(=O)/C=C/c2[nH]nc3c2Cc2ccccc2-3)cc(OC)c1OC | – | 5.06 | – | 4.89 | 5.26 | – | – | 4.60 | – | – | – | – | 5.07 | 4.96 | – | –
9 | – | COc1ccc(C(=O)/C=C/c2[nH]nc3c2Cc2ccccc2-3)cc1OC | – | 4.94 | – | 4.69 | 5.17 | – | – | 4.42 | – | – | – | – | 4.99 | 4.87 | – | –
10 | – | COc1ccc2c(c1)-c1n[nH]c(/C=C/C(=O)c3ccc(N)cc3)c1C2 | – | 4.90 | – | 4.70 | 4.92 | – | – | 4.72 | – | – | – | – | 4.95 | 4.95 | – | –
11 | – | O=C(/C=C/c1[nH]nc2c1Cc1ccccc1-2)c1ccc2c(c1)OCO2 | – | 4.76 | – | 4.86 | 4.84 | – | – | 4.77 | – | – | – | – | 4.91 | 4.80 | – | –
12 | Active | COc1cc2c(cc1OC)-c1n[nH]c(/C=C/C(=O)c3cc(OC)c(OC)c(OC)c3)c1C2 | Active | 5.30 | 9.36% | 5.23 | 5.22 | Active | 33.7% | 4.54 | Active | Active | 5.16% | 51.1% | 5.17 | 5.36 | Active | Active
13 | – | Nc1ccc(C(=O)/C=C/c2[nH]nc3c2Cc2ccccc2-3)cc1 | – | 5.13 | – | 4.83 | 5.25 | – | – | 4.46 | – | – | – | – | 5.08 | 4.94 | – | –
14 | – | COc1ccc2c(c1)-c1n[nH]c(/C=C/C(=O)c3ccc4c(c3)OCO4)c1C2 | – | 4.90 | – | 4.86 | 5.03 | – | – | 4.27 | – | – | – | – | 5.00 | 4.91 | – | –
15 | – | COc1ccc(C(=O)/C=C/c2[nH]nc3c2Cc2ccccc2-3)cc1 | – | 4.83 | – | 4.97 | 4.99 | – | – | 4.68 | – | – | – | – | 4.94 | 4.84 | – | –
16 | – | C#Cc1cccc(Nc2ncnc3cc(OCCOC)c(OCCOC)cc23)c1 [ERLOTINIB] | Active | 5.40 | 7.72% | 5.14 | 7.30 | Active | 26% | 4.14 | Active | – | 1.71% | 64.1% | 4.91 | – | Active | Active
